Test results as given in US11230525B2, “Organic sulfur compound, method for preparing same, and pharmaceutical composition for preventing or treating cancer or an inflammatory disease, containing same as active ingredient” (SOOKMYUNG WOMENS UNIVERSITY INDUSTRY-ACADEMIC COOPERATION …, priority 2016, dated 2022).

How the values were obtained:
[1] = tested on: breast cancer cell line (MDA-MB-231); test: Cancer proliferation inhibitory activity (SRB, GI50), MDA-MB-231; type: cell-based; conditions: Homo sapiens, 48 hours
Description: (§1) Particularly, the cancer proliferation inhibitory activity of the compounds of comparative examples (Ajoene and the compounds isosteric to Ajoene wherein R1 is allyl or benzyl) and the compounds of examples of the present invention (the compounds not isosteric to Ajoene wherein R^1 is phenyl) was investigated in human cancer cell lines (renal cancer cell line (ACHN), breast cancer cell line (MDA-MB-231), colorectal cancer cell line (HCT-15), prostate cancer cell line (PC-3), gastric cancer cell line (NUGC-3) and lung cancer cell line (NCl-H23)).
(§2) At this time, the cancer cell lines (renal cancer cell line (ACHN), breast cancer cell line (MDA-MB-231), colorectal cancer cell line (HCT-15), prostate cancer cell line (PC-3), gastric cancer cell line (NUGC-3) and lung cancer cell line (NCl-H23)) above were purchased from American Type Culture Collection (Manassas, Va., USA). Cells were cultured in RPMI 1640 supplemented with 10% fetal bovine serum, which were maintained 37° C. under 5% CO2 wet atmosphere. The cells were distributed in a 96-well plate, which was not treated (treated only with 0.1% DMSO) or treated with the compounds of examples of the present (0.1 μM to 10 μM). 48 hours later, the cells were fixed in 50% trichloroacetic acid, followed by staining with 1% acetic acid containing 0.4% sulphorodamine B dissolved therein. The non-conjugated dye was removed by washing with 1% acetic acid, and the protein conjugated dye was extracted with 10 mM Tris base (pH 10.5). Then, OD540 was measured with VersaMax microplate reader (Molecular devices, Sunnyvale, Calif., USA). GI50 was calculated by using GraphPad Prism software (GraphPad Software, Inc., San Diego, Calif., USA).
(§3) Based on the results obtained in experimental example 1-1 above, the derivatives wherein R^1 is phenyl were additionally synthesized. The cancer proliferation inhibitory activity of the derivatives was evaluated by the same manner as described in experimental example 1-1.

HDAC 8 = biological target: T1, HDAC 8 (Homo sapiens, UniProt Q9BY41); test: HDAC enzyme fluorescence assay, HDAC 8; type: biochemical; design: Inhibitory activity (%) HDAC 8: concentration or dose not given beside the values; conditions: for Inhibitory activity (%) HDAC 8: (HDAC inhibitory activity of example compound/HDAC inhibitory activity of SAHA) × 100
T1 sequence (Q9BY41 1-377): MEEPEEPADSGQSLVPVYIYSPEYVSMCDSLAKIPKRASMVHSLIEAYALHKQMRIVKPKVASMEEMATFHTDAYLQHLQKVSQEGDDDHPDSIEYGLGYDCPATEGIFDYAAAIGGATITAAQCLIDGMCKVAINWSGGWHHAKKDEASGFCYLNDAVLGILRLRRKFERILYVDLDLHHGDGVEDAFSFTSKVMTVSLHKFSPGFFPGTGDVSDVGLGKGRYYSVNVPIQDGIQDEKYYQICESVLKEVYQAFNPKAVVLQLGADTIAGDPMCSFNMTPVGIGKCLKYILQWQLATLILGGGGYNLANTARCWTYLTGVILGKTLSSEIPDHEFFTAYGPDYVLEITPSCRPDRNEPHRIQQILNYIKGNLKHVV
Procedure: Particularly, HDAC enzyme analysis was performed based on a uniform fluorescence emission assay. First, the compounds of examples of the present invention or comparative example 1 were diluted at different concentrations, which were treated to the analysis buffer containing 25 mM HEPES (pH 8.0), 137 mM NaCl, 1 mM MgCl2 and 2.7 mM KCL, followed by culture of the recombinant HDAC enzyme. 10 minutes later, Boc-Lys(acetyl)-AMC, the fluorescence inducing substrate, was added thereto, followed by further culture at 37° C. At this time, the concentration of the fluorescence inducing substrate and the culture time were adjusted according to the isotypes of the HDAC enzyme. The reaction was terminated by treating trypsin at room temperature for 20 minutes. The fluorescence intensity was measured using a fluorescence analyzer at an excitation wavelength of 380 nm and an emission wavelength of 460 nm, respectively. The inhibition rate was calculated from the measured fluorescence intensity of each well with comparing to that of the control well. IC50 of the compound was calculated by analyzing the dose-reaction inhibition curve.
The HDAC 8 inhibitory activity was presented as percentage of relative activity by the inhibitory activity of SAHA (Vorinostat) used as a reference compound.

[2] = tested on: lung cancer cell line (NCl-H23); test: Cancer proliferation inhibitory activity (SRB, GI50), NCI-H23; type: cell-based; conditions: Homo sapiens, 48 hours
Description: as §1, §2, §3

[3] = tested on: gastric cancer cell line (NUGC-3); test: Cancer proliferation inhibitory activity (SRB, GI50), NUGC-3; type: cell-based; conditions: Homo sapiens, 48 hours
Description: as §1, §2, §3

[4] = tested on: renal cancer cell line (ACHN); test: Cancer proliferation inhibitory activity (SRB, GI50), ACHN; type: cell-based; conditions: Homo sapiens, 48 hours
Description: as §1, §2, §3

[5] = tested on: prostate cancer cell line (PC-3); test: Cancer proliferation inhibitory activity (SRB, GI50), PC-3; type: cell-based; conditions: Homo sapiens, 48 hours
Description: as §1, §2, §3

[6] = tested on: colorectal cancer cell line (HCT-15); test: Cancer proliferation inhibitory activity (SRB, GI50), HCT-15; type: cell-based; conditions: Homo sapiens, 48 hours
Description: as §1, §2, §3

| SMILES | GI50 [1] [nM] | Inhibitory activity (%) HDAC 8 (HDAC 8) [%] | GI50 [2] [nM] | GI50 [3] [nM] | GI50 [4] [nM] | GI50 [5] [nM] | GI50 [6] [nM] | IC50 (HDAC 8; recombinant HDAC enzyme, Boc-Lys(acetyl)-AMC, read-out: IC50 HDAC 8) [nM] |
| --- | --- | --- | --- | --- | --- | --- | --- | --- |
| COc1ccc([S+]([O-])C/C=C\SSCc2ccc(Cl)cc2)cc1 (stereo not shown) [Example 36, (Z)-1-(4-chlorobenzyl)-2-(3-(4-methoxyphenylsulfinyl)prop-1-enyl)disulfane] | 1780 | 98.7 | 2190 | 2840 | 2410 | 2280 | 1620 |  |
| COc1ccc([S+]([O-])C/C=C/SSCc2ccc(Cl)c(Cl)c2)cc1 (stereo not shown) [Example 37, (E)-1-(3,4-dichlorobenzyl)-2-(3-(4-methoxyphenylsulfinyl)prop-1-enyl)disulfane] | 4190 | 106.1 | 3090 | 5480 | 3750 | 5170 | 3320 |  |
| C=CCSS/C=C/C[S+]([O-])c1cccc(OC)c1 (stereo not shown) [Example 15, (E)-1-allyl-2-(3-(3-methoxyphenylsulfinyl)prop-1-enyl)disulfane] | 4510 | 84.6 | 3420 | 2950 | 2560 | 3020 | 2580 |  |
| [O-][S+](C/C=C/SSCc1ccccc1)c1ccccc1 (stereo not shown) [Example 5, (E)-1-benzyl-2-(3-(phenylsulfinyl)prop-1-enyl)disulfane] | 6270 | 88.6 | 2980 | 3710 | 5750 | 3190 | 3970 |  |
| COc1ccc([S+]([O-])C/C=C\SSCc2ccc(Cl)c(Cl)c2)cc1 (stereo not shown) [Example 38, (Z)-1-(3,4-dichlorobenzyl)-2-(3-(4-methoxyphenylsulfinyl)prop-1-enyl)disulfane] | 2070 | 55.5 | 3330 | 4610 | 5190 | 4360 | 7180 |  |
| COc1cccc([S+]([O-])C/C=C/SSCc2ccccc2)c1 (stereo not shown) [Example 19, (E)-1-benzyl-2-(3-(3-methoxyphenylsulfinyl)prop-1-enyl)disulfane] | 1770 | 88.1 | 2120 | 2340 | 2500 | 1440 | 2080 |  |
| [O-][S+](C/C=C\SSCc1ccc(Cl)cc1)c1ccccc1 (stereo not shown) [Example 12, (Z)-1-(4-chlorobenzyl)-2-(3-(phenylsulfinyl)prop-1-enyl)disulfane] | 2260 | 105.4 | 3510 | 3240 | 2950 | 4990 | 5480 |  |
| COc1ccc(CSS/C=C/C[S+]([O-])c2ccccc2)cc1 (stereo not shown) [Example 9, (E)-1-(4-methoxybenzyl)-2-(3-(phenylsulfinyl)prop-1-enyl)disulfane] | 1540 | 48.7 | 1450 | 1430 | 2940 | 2720 | 3030 |  |
| [O-][S+](C/C=C\SSCc1ccc(Cl)c(Cl)c1)c1ccccc1 (stereo not shown) [Example 14, (Z)-1-(3,4-dichlorobenzyl)-2-(3-(phenylsulfinyl)prop-1-enyl)disulfane] | 4780 | 146.4 | 7350 | 8510 | 7680 | 4550 | > 10000 |  |
| COc1cccc([S+]([O-])C/C=C/SSCc2ccc(Cl)cc2)c1 (stereo not shown) [Example 23, (E)-1-(4-chlorobenzyl)-2-(3-(3-methoxyphenylsulfinyl)prop-1-enyl)disulfane] | 3120 | 72.6 | 4850 | 5920 | 5470 | 3760 | 4370 |  |

Next, values leading:

| GI50 [1] [nM] | Inhibitory activity (%) HDAC 8 (HDAC 8) [%] | GI50 [2] [nM] | GI50 [3] [nM] | GI50 [4] [nM] | GI50 [5] [nM] | GI50 [6] [nM] | IC50 (HDAC 8; recombinant HDAC enzyme, Boc-Lys(acetyl)-AMC, read-out: IC50 HDAC 8) [nM] | SMILES |
| --- | --- | --- | --- | --- | --- | --- | --- | --- |
| 1380 | 78.4 | 1580 | 1590 | 1570 | 1990 | 2170 |  | CCCSS/C=C/C[S+]([O-])c1cccc(OC)c1 (stereo not shown) [Example 17, (E)-1-(3-(3-methoxyphenylsulfinyl)prop-1-enyl)-2-propyldisulfane] |
| 1160 | 107.2 | 970 | 1080 | 880 | 1050 | 880 |  | COc1ccc([S+]([O-])C/C=C/SSCc2ccc(Cl)cc2)cc1 (stereo not shown) [Example 35, (E)-1-(4-chlorobenzyl)-2-(3-(4-methoxyphenylsulfinyl)prop-1-enyl)disulfane] |
| 7280 | 73.5 | 4240 | 3770 | 5060 | 4470 | 3940 |  | C=CCSS/C=C\C[S+]([O-])c1ccc(OC)cc1 (stereo not shown) [Example 28, (Z)-1-allyl-2-(3-(4-methoxyphenylsulfinyl)prop-1-enyl)disulfane] |
| 2150 | 43.8 | 2800 | 2930 | 3900 | 4740 | 2640 |  | CCCSS/C=C/C[S+]([O-])c1ccccc1 (stereo not shown) [Example 3, (E)-1-(3-(phenylsulfinyl)prop-1-enyl)-2-propyldisulfane] |
| 2140 | 52.9 | 3580 | 2360 | 3230 | 3020 | 2430 | 290 | CCCSS/C=C\C[S+]([O-])c1ccc(OC)cc1 (stereo not shown) [Example 30, (Z)-1-(3-(4-methoxyphenylsulfinyl)prop-1-enyl)-2-propyldisulfane] |
| 2200 | 69.9 | 1410 | 2040 | 1650 | 2410 | 1480 |  | CCCSS/C=C/C[S+]([O-])c1ccc(OC)cc1 (stereo not shown) [Example 29, (E)-1-(3-(4-methoxyphenylsulfinyl)prop-1-enyl)-2-propyldisulfane] |
| 1090 | 68.1 | 1490 | 2650 | 1340 | 1350 | 1450 |  | COc1ccc([S+]([O-])C/C=C\SSCc2ccc(F)cc2)cc1 (stereo not shown) [Example 34, (Z)-1-(4-fluorobenzyl)-2-(3-(4-methoxyphenylsulfinyl)prop-1-enyl)disulfane] |
| 5620 | 39.8 | 3910 | 4620 | 3860 | 4380 | 6610 |  | C=CCSS/C=C/C[S+]([O-])c1ccc(OC)cc1 (stereo not shown) [Example 27, (E)-1-allyl-2-(3-(4-methoxyphenylsulfinyl)prop-1-enyl)disulfane] |
